Experimental data published in US20260158021A1, “PREVENTION AND TREATMENT OF ORGAN FIBROSIS” (CORNELL UNIVERSITY, priority 2018, published 2026).

How the values were obtained:
human lung fibroblasts [1] = test: Fibroblast migration/accumulation/foci formation in transwell plates; format: cell-based; details: qualitative; +TGF-β (10 ng/ml) +RXD (10 mg/ml)
HLF = test: Proline hydroxylation (LC-MC of extracted proteins) and hydroxyproline content in HLF; format: cell-based, human
Description: (§1) FIG. 19A-19E. […] C. […] Actin was run as the loading control. […] All assays were performed in triplicate.

[2] = system: bleomycin-induced pulmonary fibrosis; test: Bleomycin experimental mouse model of pulmonary fibrosis; format: in vivo, mice (C57BL/6J)
Source text: FIG. 11A-11B. In Vivo Murine Model of pulmonary fibrosis. […] Representative micrographs of Masson's trichrome-stained lungs from bleomycin-treated mice from the 14d time point. […] FIG. 12. […] Sal=Saline vehicle. FIG. 20A-20E. […] NS=not significant. N=5 mice/group. Scale bar=250 μm. […] Mice were sacrificed on day 21.

[3] = system: mast cells (human mastocytoma cells); test: Mast cell degranulation after high oxygen and recovery in room air (β-hexosaminadase, tryptase release); format: cell-based; details: 72 h; 1 day high oxygen then 2 days room air (HO^rec) +RXD 10 mg/ml
Description: FIG. 5A-5C. […] C. […] NS=not significant
Mast cell degranulation was assessed by measuring the release of β-hexosaminadase (β-hex), a classic indicator of mast cell degranulation (FIG. 5A) and Tryptase (FIG. 5B). […] This protocol was designed to mimic the clinical protocol of giving IPF patients hospitalized with acute exacerbations high oxygen then followed by return to room air.

c-P4H tetramer = test: Non-denaturing Western blot of human lung fibroblast homogenates probed for c-P4H α-subunit; format: cell-based; details: RXD 10 mg/ml; alone, +EXO, +TGF-β
Description: FIG. 4. […] Western blotting on a gradient gel was performed on human lung fibroblast homogenates in non-denaturing conditions and probed with anti-α-subunit monomer (60 kD). Tetramer is found at 240 kD at arrow.

[4] = system: smooth muscle actin (SMA); test: Western blot of smooth muscle actin (SMA) in lung fibroblasts; format: cell-based, human; details: Western blotting
human lung fibroblasts [5] = test: Collagen secretion by human lung fibroblasts (newly secreted collagen in supernatant, Sircol); format: cell-based; details: for collagen secretion: RXD, normalized for total protein
Description: (§2) Human lung fibroblasts were exposed to TGF-β (10 ng/ml) or co-cultured with EXO([…]), and supernatants were collected for measurement of newly secreted collagen. […] Cell lysates were used to quantify total protein/well for normalization. Data are means±SEM of three separate experiments (n=3), each point run in triplicate. *P<0.05, ***P<0.001, ***P<0.0001.
as §1
(FIG. 3A). All values presented are normalized for total protein.

C-P4H = C-P4H abundance in stimulated human fibroblasts (immunofluorescence, Western blot); format: cell-based; details: for C-P4H immunofluorescence intensity: human fibroblasts exposed to TGF-β or mast cell exosomes
Description: FIG. 9. Roxadustat inhibits the increase in C-[…] in stimulated human fibroblasts. Immunoexpression of prolyl-4-hydroxylase […]). […] FIG. 19A-19E. […] C. […] Actin was run as the loading control. […] All assays were performed in triplicate.

human lung fibroblasts [6] = test: Fibroblast proliferation by total protein content of fibroblast cell lysates; format: cell-based; details: +RXD+TGF-β; control 0.800, +TGF-β 1.138
Description: as §2

UUO kidney = test: Unilateral ureteral obstruction (UUO) model of renal fibrosis, Masson's trichrome collagen staining; format: in vivo, Mice C57BL/6J
Description: All animal treatments and experiments were approved by the Institutional Animal Care and Use Committee of Weill Cornell Medical College. Mice were anesthetized intraperitoneally with a cocktail of ketamine (90 mg/kg) and xylazine (4 mg/kg). Mice C57BL/6J) underwent right unilateral ureteral ligation with 4-0 silk suture through an abdominal midline incision under sterile conditions. Sham-operated control (CON) animals underwent identical operations, however, with manipulation of the right ureter only. Delivery of Roxadustat (10 mg/kg) on days 0, 2, 4, 6, 8, was administered IP. Mice were sacrificed on Day 14.
Kidneys were harvested and fixed in 10% neutral buffered formalin followed by embedding in paraffin. Sections (5 um) were collected and Masson's trichrome staining was performed using a kit (Richard-Allen Scientific) to detect collagen (blue stain). Slides of paraffinized tissue sections were deparaffinized, rehydrated, and washed in distilled water. Sections were subsequently stained using components from the trichrome kit and according to the manufacturer's protocol. After dehydrating and clearing in xylene, the sections were mounted with coverslips in Vectamount (Vector Laboratories). Tissue sections were examined with an inverted epifluorescence microscope (Nikon Eclipse TE 2000-U) interfaced to a SPOT Insight 2 megapixel color camera (Diagnostic Instruments).

Structure (SMILES): Cc1nc(C(=O)NCC(=O)O)c(O)c2ccc(Oc3ccccc3)cc12 [RXD]
- fibroblast migration, accumulation, and foci formation (human lung fibroblasts [1]): prevents fibroblast migration, accumulation, and foci formation
- proline hydroxylation in collagens 1 and 3 (HLF; LC-MC analysis of HLF extracted proteins): prevented proline hydroxylation
- hydroxyproline in HLFs (HLF; TGF-β-induced increase): inhibited the TGF-β-induced increase in hydroxyproline
- severity of fibrosis, Masson's trichrome stained lungs ([2]; RXD 10 mg/kg days 7-19 every other day, sacrifice day 21): lessened the severity of fibrosis
- lung hydroxyproline content ([2]; RXD 10 mg/kg days 7-19 every other day, sacrifice day 21, P<0.01 Bleo versus Bleo+RXD): significantly decreased
- number of mast cells in vivo in pulmonary fibrosis ([2]; bleo vs bleo+RXD, P<0.05): reduced
- lung compliance (pulmonary function tests) ([2]; bleomycin-induced decrease): normalizes the bleomycin-induced decrease in lung compliance
- pulmonary fibrosis, Masson's trichrome-stained lungs ([2]; bleomycin-treated mice, 14d time point): reduced
- mast cell degranulation (β-hexosaminadase and mast cell tryptase in supernatants) [3]: decreases mast cell degranulation
- α-subunit monomer abundance (60 kD band) (c-P4H tetramer): increased the α-subunit monomer abundance in all cases
- SMA abundance [4]: decreased
- secreted collagen (Sircol) (human lung fibroblasts [5]; FIG. 19E, HLF untreated and treated with +MC-EXO and +TGF-β): blocked
- collagen secretion (human lung fibroblasts [5]; fibroblasts co-cultured with mast cell exosomes (40 g/ml)): inhibits collagen secretion
- collagen secretion (human lung fibroblasts [5]; fibroblasts exposed to exogenous TGF-β1 (10 ng/ml)): inhibits collagen secretion
- collagen secretion (human lung fibroblasts [5]; untreated fibroblasts): inhibits collagen secretion
- C-P4H abundance in Western blots (C-P4H; HLF lysates +MC-EXO and +TGFβ, actin loading control): decreased C-P4H abundance
- C-P4H immunofluorescence intensity (C-P4H): inhibited the increase in C-P4H fluorescence intensity
- C-P4H immunofluorescence intensity (C-P4H; listed as Roxadustat): inhibits the increase in C-P4H
- total protein content of fibroblast cell lysates (fibroblast proliferation) (human lung fibroblasts [6]): 0.828 μg/ml/well
- renal fibrosis, collagen staining of UUO kidney cortex and medulla (UUO kidney; Roxadustat 10 mg/kg IP days 0, 2, 4, 6, 8, Day 14): lessened the fibrosis
- quantified collagen (blue) staining, UUO kidney cortex and medulla (UUO kidney; pixel by pixel, P<0.0001 UUO vs UUO+RXD in cortex and in medulla): Reduces Fibrosis
- quantified collagen staining, control cortex and medulla with and without RXD (UUO kidney; sham control kidneys): no significant difference
